Row | SMILES | melting point [°C]
1 | N[C@H](C(=O)N1CC(F)(F)C(F)(F)C1)C1CCCCC1 [Example 3, (S)-2-Amino-2-cyclohexyl-1-(3,3,4,4-tetrafluoro-pyrrolidin-1-yl)-ethanone] | 278
2 | CC(C)[C@H](N)C(=O)N1CC(F)(F)C(F)(F)C1 [Example 5, (S)-2-Amino-3-methyl-1-(3,3,4,4-tetrafluoro-pyrrolidin-1-yl)-butan-1-one] | 234 to 238

Source: US20040002609A1, “Synthesis of 3,3,4,4-tetrafluoropyrrolidine and novel dipeptidyl peptidase-IV inhibitor compounds” (Pfizer Inc., priority 2002, published 2004)
